# Several values for one entry are separate records, joined by “and”; a condition that tells them apart may be missing. Equal entries are not always repeated.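 The compound was tested at five concentrations on cells cultured in 96-well plates, with a 48-hour exposure period. GI50 is the concentration that inhibits growth by half. TGI: total growth inhibition.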
# Assays:
# Assay in all cases: growth of human tumour cells (NCI), 48 h
# A498 renal = tested on: A498 renal
# DLD-1 colon = tested on: DLD-1 colon
# HCC-2998 colon = tested on: HCC-2998 colon
# M19-MEL melanoma = tested on: M19-MEL melanoma
# MOLT-4 leukemia = tested on: MOLT-4 leukemia
# NCI-H460 lung = tested on: NCI-H460 lung
# SK-MEL-28 melanoma = tested on: SK-MEL-28 melanoma
# UACC-62 melanoma = tested on: UACC-62 melanoma
# T-47D breast = tested on: T-47D breast
# MDA-MB-231 breast = tested on: MDA-MB-231 breast
Compound,TGI (A498 renal),TGI (DLD-1 colon),TGI (HCC-2998 colon),TGI (M19-MEL melanoma),TGI (MOLT-4 leukemia),TGI (NCI-H460 lung),TGI (SK-MEL-28 melanoma),TGI (UACC-62 melanoma),GI50 (A498 renal),GI50 (DLD-1 colon),GI50 (HCC-2998 colon),GI50 (M19-MEL melanoma),GI50 (SK-MEL-28 melanoma),TGI (T-47D breast),GI50 (UACC-62 melanoma),TGI (MDA-MB-231 breast),GI50 (MOLT-4 leukemia),GI50 (NCI-H460 lung),GI50 (MDA-MB-231 breast),GI50 (T-47D breast)
CCCCC1=CSC(c2ccccc2)=C(c2ccccc2)S1,> 100 µM,> 100 µM,> 100 µM,> 100 µM,> 100 µM,> 100 µM,> 100 µM,> 100 µM,,,,,,,,,,,,
CC(=O)OCC1OC(n2c(=S)n(-c3ccc([N+](=O)[O-])cc3)c(=O)c3ccccc32)C(OC(C)=O)C(OC(C)=O)C1OC(C)=O (centres undefined),> 76.2 µM and 53.6 µM,> 100 µM,61.4 µM and 46.6 µM,> 100 µM and 55.4 µM,> 95.1 µM,> 69.8 µM and 68.2 µM,> 82.5 µM and 59.7 µM,34 µM and 40.7 µM,21.9 µM,21.9 µM and 30.4 µM,26.8 µM and 20.8 µM,29.7 µM and 16.8 µM,31 µM and 20.7 µM,74.3 µM,17.6 µM,,,,,
CN=c1ss/c(=N\C(=S)N(C)C)n1C,> 100 µM,> 100 µM,> 100 µM,> 100 µM,> 100 µM,> 100 µM,> 100 µM,> 100 µM,,,,,,,,,,,,
COC1C2C[C@@H](O)CCC2C(C(=O)OCCl)C[C@H]1O (some centres undefined),> 100 µM,> 100 µM,> 100 µM,> 100 µM,> 100 µM,> 100 µM,> 100 µM,> 100 µM,,,,,,,,,,,,
COC(=O)NC1C(C)OC(OC2C/C=C(/C)C3C=CC4C(OC5CC(OC6CCC(OC7CC(O)C(OC8CCC(O)C(C)O8)C(C)O7)C(C)O6)C(OC(C)=O)C(C)O5)C(C)CC(C)C4C3(C)/C(O)=C3/C(=O)OC4(CC(C=O)=CC(O)C4/C=C\2C)C3=O)CC1(C)[N+](=O)[O-] (centres undefined),1.65 µM and 0.508 µM,11.7 µM and 1.8 µM,1.95 µM and 0.453 µM,2.02 µM and 0.473 µM,4.78 µM and 0.634 µM,2.17 µM and 2.14 µM,,1.47 µM and 0.319 µM,0.199 µM,0.427 µM,0.208 µM,0.0982 µM,0.0311 µM,10.2 µM,0.155 µM,3.49 µM,131 nM,319 nM,,
Nc1ccc2n[se]nc2c1,> 100 µM,> 100 µM,> 100 µM,> 100 µM,> 100 µM,> 100 µM,> 100 µM,> 100 µM,,,,,,,,,,,,
O=S1(=O)N2CN3CN(C2)CN1C3,522 µM,96.8 µM and 97.5 µM,571 µM,337 µM,864 µM,272 µM,225 µM,49.2 µM,,30.1 µM,,,40.6 µM,,,,,,,
CC1CC2C3CCC4=CC(=O)C=CC4(C)C3(F)C(O)CC2(C)C1(O)C(=O)COP(=O)(O)O (centres undefined),> 500 µM,> 100 µM,> 500 µM,> 100 µM,> 500 µM,> 500 µM,> 500 µM,> 500 µM,> 500 µM,,> 500 µM,,> 500 µM,> 500 µM,> 500 µM,> 500 µM,> 500000 nM,> 500000 nM,> 500 µM,> 500 µM
CN(C)CCNC(=O)c1cccc2c1nc(-c1ccc(F)cc1)c1ccccc12,16.2 µM,15 µM,16.7 µM,18.6 µM,1.77 µM,12 µM,20.3 µM,14.8 µM,,,,,,,,,,,,
CC1(C)CCC(Sc2ccccc2)O1 (centres undefined),> 100 µM,> 100 µM,> 100 µM,> 100 µM,> 100 µM,> 100 µM,> 100 µM,> 100 µM,,,,,,,,,,,,
CCOC(=O)C(C)(NC(=O)c1ccc(NCc2ccc3nc(NC(=O)c4ccccc4)nc(NC(=O)c4ccccc4)c3c2)cc1)C(=O)OCC,22.7 µM,> 100 µM,69.7 µM,24.9 µM,> 100 µM,32.5 µM,27.6 µM,22.1 µM,,,,,,,,,,,,
C[C@H]1CC[P+](Cc2ccccc2)(c2ccccc2)C1 (some centres undefined),> 100 µM,> 100 µM,> 100 µM,> 100 µM,> 100 µM,> 100 µM,> 100 µM,> 100 µM,,,,,,,,,,,,
